From patent US10030006B2, “Coumarin based Hsp90 inhibitors with urea and ether substituents” (University of Kansas, priority 2013, dated 2018)
Like-named read-outs stand apart in the source and are kept apart here.

Key:
[1] = test system: SKBr3 (estrogen receptor negative, Her2 over-expressing breast cancer cells); conditions: background, Marcu, et al., 2000; read-out: Hsp90 C-terminal inhibitor efficiency in SKBr3 cells; cited from earlier work
JMAR = experiment: Anti-proliferation assay, JMAR; type: cell-based; conditions: JMAR; Table 7, prenylated phenyl ureas; HSNCC
In short: (§1)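 First, cells grown in DMEM/F12 plus 10% FBS were plated at 2000 per well and left to attach overnight. Next, graded compound concentrations were added at 1% DMSO final for 72 h. Finally, viable cell number was measured with MTS/PMS and IC50 derived.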

HMLE = experiment: Anti-proliferation assay, HMLE (normal); type: cell-based; conditions: HMLE, Table 7, prenylated phenyl ureas
In short: as §1

A-549 = experiment: Anti-proliferation assay, A-549; type: cell-based; conditions: Homo sapiens, A549; Table 7, prenylated phenyl ureas
In short: as §1

HCT-116 = experiment: Anti-proliferation assay, HCT-116; type: cell-based; conditions: Homo sapiens, HCT-116; Table 7, prenylated phenyl ureas
In short: as §1

MDA1986 = experiment: Anti-proliferation assay, MDA1986; type: cell-based; conditions: MDA1986; Table 7, prenylated phenyl ureas; HSNCC
In short: as §1

PC-3 = experiment: Anti-proliferation assay, PC-3; type: cell-based; conditions: Homo sapiens, PC-3; Table 7, prenylated phenyl ureas; Prostate Cancer
In short: as §1

DRO81-1 = experiment: Anti-proliferation assay, DRO81-1; type: cell-based; conditions: Table 7, prenylated phenyl ureas; Thyroid
In short: as §1

[2] = test system: MCF-7 (estrogen receptor positive breast cancer cells); experiment: Anti-proliferation assay (MTS/PMS, 72 h), MCF-7; type: cell-based; conditions: Homo sapiens, MCF7
MRC5 = experiment: Anti-proliferation assay, MRC5 (normal); type: cell-based; conditions: Homo sapiens, MRC5, Table 7, prenylated phenyl ureas
In short: as §1

[3] = test system: SKBr3 and MCF-7 cell lines; experiment: Anti-proliferative activity against both breast cancer cell lines (results in words); type: cell-based; conditions: text b189, two breast cancer cell lines
Protocol: (§2) Cells were maintained in a 1:1 mixture of Advanced DMEM/F12 (Gibco) supplemented with non-essential amino acids, L-glutamine (2 mM), streptomycin (500 μg/mL), penicillin (100 units/mL), and 10% FBS. Cells were grown to confluence in a humidified atmosphere (37° C., 5% CO2), seeded (2000/well, 100 μL) in 96-well plates, and allowed to attach overnight. Compound at varying concentrations in DMSO (1% DMSO final concentration) was added, and cells were returned to the incubator for 72 h. At 72 h, the number of viable cells was determined using an MTS/PMS cell proliferation kit (Promega) per the manufacturer's instructions. Cells incubated in 1% DMSO were used at 100% proliferation, and values were adjusted accordingly. IC50 values were calculated from separate experiments performed in triplicate using GraphPad Prism.
The anti-proliferative activity of these compounds is evaluated against two breast cancer cell lines, SKBr3 (estrogen receptor negative, Her2 over-expressing breast cancer cells) and MCF-7 (estrogen receptor positive breast cancer cells).

MDAMB231 = experiment: Anti-proliferation assay, MDAMB231; type: cell-based; conditions: Homo sapiens, MDA-MB-231; Table 7, prenylated phenyl ureas; Tri-Neg
In short: as §1

[4] = test system: SKBr3 (estrogen receptor negative, Her2 over-expressing breast cancer cells); experiment: Anti-proliferation assay (MTS/PMS, 72 h), SKBr3; type: cell-based; conditions: Homo sapiens, SK-BR-3
BCPAP = experiment: Anti-proliferation assay, BCPAP; type: cell-based; conditions: Homo sapiens, BCPAP; Table 7, prenylated phenyl ureas; Thyroid
Protocol: as §2

Compound: CO[C@@H]1[C@@H](OC(N)=O)[C@@H](O)[C@H](Oc2ccc3c(O)c(NC(=O)c4ccc(O)c(CC=C(C)C)c4)c(=O)oc3c2C)OC1(C)C [Novobiocin]
- IC50 [1]: ~700 µM

Compound: CC(C)=CCc1cc(NC(=O)Nc2cc3ccc(OC4CCN(C)CC4)c(C)c3oc2=O)ccc1O [OH, 1-(4-hydroxy-3-(3-methylbut-2-en-1-yl)phenyl)-3-(8-methyl-7-((1-methylpiperidin-4-yl)oxy)-2-oxo-2H-chromen-3-yl)urea]
- IC50 (JMAR): 0.91 µM
- IC50 (HMLE): 4.8 µM
- IC50 (A-549): 0.25 µM
- IC50 (HCT-116): 0.39 µM
- IC50 (MDA1986): 1.36 µM
- IC50 (PC-3): 0.29 µM
- IC50 (DRO81-1): 1.1 µM
- IC50 ([2]; Table 7, prenylated phenyl ureas, Breast Cancer, read-out: IC50 MCF-3): 0.37 µM
- IC50 ([2]; amide versus urea linkage, read-out: IC50 for MCF-3): 0.37 µM
- IC50 (MRC5): 4.02 µM
- increase in inhibition, urea versus amide linkage [3]: 2-3 fold
- IC50 (MDAMB231): 0.66 µM
- IC50 ([4]; Table 7, prenylated phenyl ureas, Breast Cancer, read-out: IC50 SKBr3): 0.39 µM
- IC50 ([4]; amide versus urea linkage, read-out: IC50 for SKBr3): 0.39 µM
- IC50 (BCPAP): 0.99 µM
